Test results: patent publication US20160296529A1, “AMINOTRIAZOLOPYRIDINE FOR USE IN THE TREATMENT OF INFLAMMATION, AND PHARMACEUTICAL COMPOSITIONS THEREOF” (priority 2012, published 2016)
“And” between values parts separate entries of the source, which are not always exact repeats. Identical values can stand only once. Like-named read-outs stand apart in the source and are kept apart here.

What was measured:
[1] = biological target: T1, Recombinant human JAK2 catalytic domain (Homo sapiens, UniProt O60674); test: JAK2 assay polyGT substrate; assay type: biochemical
T1 construct: amino acids 808-1132; catalog number PV4210; GST; purchased Invitrogen PV4210
T1 sequence (O60674 808-1132): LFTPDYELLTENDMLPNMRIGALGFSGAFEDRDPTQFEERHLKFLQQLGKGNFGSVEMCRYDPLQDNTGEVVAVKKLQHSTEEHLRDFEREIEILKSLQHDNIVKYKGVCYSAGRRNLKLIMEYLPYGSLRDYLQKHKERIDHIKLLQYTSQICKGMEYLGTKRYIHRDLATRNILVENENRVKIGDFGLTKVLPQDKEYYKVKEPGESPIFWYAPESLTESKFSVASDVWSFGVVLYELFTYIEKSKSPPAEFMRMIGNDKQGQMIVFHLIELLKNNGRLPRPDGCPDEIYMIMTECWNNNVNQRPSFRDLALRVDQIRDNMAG
Procedure: Recombinant human JAK2 catalytic domain (amino acids 808-1132; catalog number PV4210) was purchased from Invitrogen. 0.05 mU of JAK2 was incubated with 2.5 μg polyGT substrate (Sigma catalog number P0275) in kinase reaction buffer (10 mM MOPS pH 7.5, 0.5 mM EDTA, 0.01% Brij-35, 1 mM DTT, 15 mM MgAc, 1 μM non-radioactive ATP, 0.25 μCi ^33P-gamma-ATP (Perkin Elmer, catalog number NEG602K001MC) final concentrations) with or without 5 μL containing test compound or vehicle (DMSO, 1% final concentration), in a total volume of 25 μL, in a polypropylene 96-well plate (Greiner, V-bottom). After 90 min at 30° C., reactions were stopped by adding of 25 μL/well of 150 mM phosphoric acid. […] 40 μL/well of Microscint-20 was added, the top of the plates was sealed and readout was performed using the Topcount (Perkin Elmer). Kinase activity was calculated by subtracting counts per min (cpm) obtained in the presence of a positive control inhibitor (10 μM staurosporine) from cpm obtained in the presence of vehicle. The ability of a test compound to inhibit this activity was determined as:
Percentage inhibition=((cpm determined for sample with test compound present−cpm determined for sample with positive control inhibitor) divided by (cpm determined in the presence of vehicle−cpm determined for sample with positive control inhibitor))*100. […]

[2] = system: IL-6-induced STAT1 phosphorylation (JAK1-dependent pathway); test: Human whole blood assay (hWBA), IL-6 stimulation, phospho-STAT1 on CD4+ cells; assay type: cell-based
Procedure: A flow cytometry analysis was performed to establish JAK1 over JAK2 compound selectivity ex vivo using human whole blood. Therefore, blood is taken from human volunteers who gave informed consent. Blood is then equilibrated for 30 min at 37° C. under gentle rocking, then aliquoted in Eppendorf tubes. Compound is added at different concentrations and incubated at 37° C. for 30 min under gentle rocking and subsequently stimulated for 20 min at 37° C. under gentle rocking with interleukin 6 (IL-6) for JAK1-dependent pathway stimulation or GM-CSF for JAK2-dependent pathway stimulation. Phospho-STAT1 and phospho-STAT5 are then evaluated using FACS analysis. […]
Cells were then washed once with 1×PBS and analyzed on a FACSCanto II flow cytometer (BD Biosciences).
50,000 total events are counted and Phospho-STAT1 positive cells are measured after gating on CD4^+ cells, in the lymphocyte gate. Data are analyzed using the FACSDiva software and the percentage of inhibition of IL-6 stimulation calculated from the percentage of positive cells for phospho-STAT1 on CD4+ cells.
A flow cytometry analysis was performed to establish JAK1 over JAK2 compound selectivity ex vivo using human whole blood. […] Phospho-STAT1 (for IL-6- and IFNα-stimulated cells) and phospho-STAT5 (for IL-2- and GM-CSF-stimulated cells) levels are then evaluated using FACS analysis. […]

`Nc1nc2cccc(-c3ccc(CN4CCS(=O)(=O)CC4)cc3)n2n1` [Formula I, 5-[4-(1,1-Dioxothiomorpholin-4-ylmethyl)-phenyl]-[1,2,4]triazolo[1,5-a]pyridin-2-ylamine] was tested, and the IC50 ([1]; average, read-out: IC50 (average)) was 624 nM, the IC50 ([1]; individual determinations, read-out: IC50) was 567 nM and 365 nM and 256 nM and 915 nM and 1020 nM and the IC50 ([2]; human whole blood, 6 different donors) was 11.9 µM. The “selectivity for JAK1 over JAK2” value ([2]; in vitro whole blood selectivity assay (IL-6 vs GM-CSF)) was “over 10 fold”.
